ChEMBL document CHEMBL3808374, “Discovery of 3-Substituted 1H-Indole-2-carboxylic Acid Derivatives as a Novel Class of CysLT1 Selective Antagonists” (ACS Med Chem Lett, 2016)
Calls of active or inactive are those of the source. The calls are words filed in the database; no cut-off is given here.

What was measured:
[1] = molecular target: T1, Cysteinyl leukotriene receptor 2 (Homo sapiens, UniProt Q9NS75); experiment: Antagonist activity against CysLT2 receptor (unknown origin) expressed in HEK293 cells assessed as inhibition of LTD4-induced calcium mobilization pre-incubated for 10 mins before LTD4 addition by Fluo-4 AM dye based fluorimetric assay; type: functional, cell-based
T1 sequence (Q9NS75 whole entry): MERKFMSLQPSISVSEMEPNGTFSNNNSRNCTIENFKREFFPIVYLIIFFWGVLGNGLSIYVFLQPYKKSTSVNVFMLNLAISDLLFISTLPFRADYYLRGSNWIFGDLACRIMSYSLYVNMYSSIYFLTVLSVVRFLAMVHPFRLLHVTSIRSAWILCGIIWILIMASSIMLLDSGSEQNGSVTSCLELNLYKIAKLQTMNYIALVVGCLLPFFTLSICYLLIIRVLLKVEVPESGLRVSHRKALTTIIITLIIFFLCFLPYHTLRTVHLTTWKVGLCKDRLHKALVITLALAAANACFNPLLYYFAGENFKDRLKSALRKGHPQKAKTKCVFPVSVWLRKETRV

[2] = molecular target: T2, Cysteinyl leukotriene receptor 1 (Homo sapiens, UniProt Q9Y271); experiment: Antagonist activity against CysLT1 receptor (unknown origin) expressed in HEK293 cells assessed as inhibition of LTD4-induced calcium mobilization pre-incubated for 10 mins before LTD4 addition by Fluo-4 AM dye based fluorimetric assay; type: functional, cell-based
T2 sequence (Q9Y271 whole entry): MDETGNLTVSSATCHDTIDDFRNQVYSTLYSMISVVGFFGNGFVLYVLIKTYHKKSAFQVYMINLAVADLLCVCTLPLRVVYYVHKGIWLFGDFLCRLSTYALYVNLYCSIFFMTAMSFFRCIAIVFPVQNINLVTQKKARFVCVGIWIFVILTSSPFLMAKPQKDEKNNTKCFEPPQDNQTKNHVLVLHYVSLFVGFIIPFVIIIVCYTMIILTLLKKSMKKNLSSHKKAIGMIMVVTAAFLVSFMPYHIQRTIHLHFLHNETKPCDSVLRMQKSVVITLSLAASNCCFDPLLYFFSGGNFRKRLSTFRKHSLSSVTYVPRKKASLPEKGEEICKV

[3] = molecular target: T3, Cysteinyl leukotriene receptor 1 (Mus musculus) (UniProt Q99JA4); conditions: C57BL/6, at 1 µM
T3 sequence (whole entry): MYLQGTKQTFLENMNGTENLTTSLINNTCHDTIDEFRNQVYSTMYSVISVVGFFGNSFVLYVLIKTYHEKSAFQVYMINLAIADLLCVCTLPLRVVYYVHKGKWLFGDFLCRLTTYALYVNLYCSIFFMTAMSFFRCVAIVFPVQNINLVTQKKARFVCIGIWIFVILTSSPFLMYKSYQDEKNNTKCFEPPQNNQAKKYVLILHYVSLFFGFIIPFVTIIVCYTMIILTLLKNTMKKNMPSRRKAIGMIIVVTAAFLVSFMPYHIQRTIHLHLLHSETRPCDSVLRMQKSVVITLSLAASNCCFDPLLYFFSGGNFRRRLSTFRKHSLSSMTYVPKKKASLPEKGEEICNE

[4] = molecular target: T3, Cysteinyl leukotriene receptor 1 (Mus musculus); experiment: (§1) Antagonist activity at LTD4 receptor in splenocytes isolated from MOG(35 to 55 residues) containing CFA immunized and pertussis toxin-induced C57BL/6 mouse experimental autoimmune encephalomyelitis model assessed as inhibition of LTD4-induced leukocyte chemotaxis at 100 nM after 1.5 hrs by flow cytometric analysis; type: cell-based
[5] = molecular target: T3, Cysteinyl leukotriene receptor 1 (Mus musculus); experiment: as §1, with “10” for “100”; type: cell-based

Compound | IC50 [1] | IC50 [2] | inhibition [3] | inhibition [4] | inhibition [5]
O=C(/C=C/c1c(C(=O)O)[nH]c2cc(Cl)cc(Cl)c12)OC1CCCCC1 | > 100 µM | > 100 µM |  |  | 
COc1ccc2[nH]c(C(=O)O)c(/C=C/C(=O)Nc3cccc(/C=C/c4ccc5ccc(Cl)cc5n4)c3)c2c1 | 46 µM | 0.025 µM |  |  | 
CC(C)(O)c1ccccc1CC[C@@H](SCC1(CC(=O)O)CC1)c1cccc(/C=C/c2ccc3ccc(Cl)cc3n2)c1 |  |  | 50% |  | 
O=C(O)c1ccc(OCCCc2ccc(OCCCCOc3ccccc3)cc2)c(C(=O)NC2CCCC(C(=O)O)C2)c1 (stereo unspecified) |  | > 2.5 µM |  |  | 
O=C(/C=C/c1c(C(=O)O)[nH]c2cc(Cl)cc(Cl)c12)Oc1ccccc1 | > 100 µM | > 100 µM |  |  | 
O=C(CCc1c(C(=O)O)[nH]c2ccccc12)Nc1cccc(/C=C/c2ccc3ccc(Cl)cc3n2)c1 | 50 µM | 0.058 µM |  |  | 
O=C(/C=C/c1c(C(=O)O)[nH]c2cc(Cl)cc(Cl)c12)OCC1CCCCC1 | > 100 µM | > 100 µM |  |  | 
O=C(/C=C/c1c(C(=O)O)[nH]c2cc(Cl)cc(Cl)c12)Nc1cccc(/C=C/c2ccc3ccc(Cl)cc3n2)c1 | > 100 µM | 0.29 µM |  |  | 
COc1ccc2c(/C=C/C(=O)Nc3cccc(/C=C/c4ccc5ccc(Cl)cc5n4)c3)c(C(=O)O)[nH]c2c1 | > 100 µM | 0.012 µM |  | > 50% | 
O=C(/C=C/c1c(C(=O)O)[nH]c2cc(Cl)cc(Cl)c12)OCCCCc1ccccc1 | > 100 µM | > 100 µM |  |  | 
O=C(/C=C/c1c(C(=O)O)[nH]c2ccc(F)cc12)Nc1cccc(/C=C/c2ccc3ccc(Cl)cc3n2)c1 | 46 µM | 0.0078 µM |  | > 50% | Active
COc1cccc2c(/C=C/C(=O)Nc3cccc(/C=C/c4ccc5ccc(Cl)cc5n4)c3)c(C(=O)O)[nH]c12 | 15 µM | 0.0059 µM |  | > 50% | Active
O=C(/C=C/c1c(C(=O)O)[nH]c2ccccc12)Nc1cccc(/C=C/c2ccc3ccc(Cl)cc3n2)c1 | 58 µM | 0.009 µM |  | > 50% | 
O=C(/C=C/c1c(C(=O)O)[nH]c2ccccc12)OCc1cccc(/C=C/c2ccc3ccc(Cl)cc3n2)c1 | > 100 µM | 0.12 µM |  |  | 
O=C(O)c1[nH]c2ccccc2c1C(=O)Nc1cccc(/C=C/c2ccc3ccc(Cl)cc3n2)c1 | 23 µM | 0.035 µM |  |  | 
O=C(/C=C/c1c(C(=O)O)[nH]c2cc(Cl)cc(Cl)c12)OCCc1ccccc1 | > 100 µM | > 100 µM |  |  | 
CCCCCOC(=O)/C=C/c1c(C(=O)O)[nH]c2cc(Cl)cc(Cl)c12 | > 100 µM | > 100 µM |  |  | 
O=C(/C=C/c1c(C(=O)O)[nH]c2c(Cl)cccc12)Nc1cccc(/C=C/c2ccc3ccc(Cl)cc3n2)c1 | > 100 µM | 0.016 µM |  |  | 
O=C(/C=C/c1c[nH]c2cc(Cl)cc(Cl)c12)OCc1cccc(/C=C/c2ccc3ccc(Cl)cc3n2)c1 | > 100 µM | 31 µM |  |  | 
O=C(/C=C/c1c(C(=O)O)[nH]c2ccc(Cl)cc12)Nc1cccc(/C=C/c2ccc3ccc(Cl)cc3n2)c1 | > 100 µM | 0.017 µM |  |  | 
O=C(/C=C/c1c(C(=O)O)[nH]c2cc(Cl)ccc12)Nc1cccc(/C=C/c2ccc3ccc(Cl)cc3n2)c1 | 87 µM | 0.022 µM |  |  | 
O=C(/C=C/c1c(C(=O)O)[nH]c2cc(Cl)cc(Cl)c12)OCc1cccc(/C=C/c2ccc3ccc(Cl)cc3n2)c1 | > 100 µM | 0.66 µM | 50% |  | 
N#CCCCCOC(=O)/C=C/c1c(C(=O)O)[nH]c2cc(Cl)cc(Cl)c12 | > 100 µM | > 100 µM |  |  | 
O=C(/C=C/c1c(C(=O)O)[nH]c2cccc(Cl)c12)Nc1cccc(/C=C/c2ccc3ccc(Cl)cc3n2)c1 | 36 µM | 0.067 µM |  |  | 
O=C(/C=C/c1c(C(=O)O)[nH]c2cc(F)cc(F)c12)Nc1cccc(/C=C/c2ccc3ccc(Cl)cc3n2)c1 | 76 µM | 0.038 µM |  |  | 
O=C(/C=C/c1c(C(=O)O)[nH]c2cc(Cl)cc(Cl)c12)OCc1ccccc1 | > 100 µM | > 100 µM |  |  | 
CC(C)CCCOC(=O)/C=C/c1c(C(=O)O)[nH]c2cc(Cl)cc(Cl)c12 | > 100 µM | > 100 µM |  |  | 
O=C(/C=C/c1c(C(=O)O)[nH]c2cc(Cl)cc(Cl)c12)OCCCc1ccccc1 | > 100 µM | > 100 µM |  |  | 
